In the supplement of paper PMC10307832:

What was measured:
Assay in all cases: relative viability (nuclei count vs DMSO), 5 days (fraction); higher = more cells survive
NCI-H2228 = tested on: NCI-H2228
Method in brief: (§1)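 Relative viability was taken as the ratio of nuclei in treated wells to nuclei in vehicle wells. Lung cancer cell lines in 1536-well plates received compounds by pin tool one day after seeding, either one drug alone or a fixed anchor-drug dose plus five library-drug doses (not always all listed) in √10 steps. Nuclei were counted on 4× images after 5 days of treatment, and values are medians of duplicate plates.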

ABC-1 = tested on: ABC-1
Method in brief: as §1

LOU-NH91 = tested on: LOU-NH91
Method in brief: as §1

NCI-H1650 = tested on: NCI-H1650
Method in brief: as §1

NCI-H1755 = tested on: NCI-H1755
Method in brief: as §1

NCI-H1703 = tested on: NCI-H1703
Method in brief: as §1

Calu-6 = tested on: Calu-6
Method in brief: as §1

NCI-H1299 = tested on: NCI-H1299
Method in brief: as §1

EBC-1 = tested on: EBC-1
Method in brief: as §1

NCI-H1666 = tested on: NCI-H1666
Method in brief: as §1

IA-LM = tested on: IA-LM
Method in brief: as §1

Question: Which relative viability (NCI-H2228; first compound 0.2 µM) does the source give for `COCC1(CO)C(=O)C2CCN1CC2` (stereo not given) [PRIMA-1MET] + CC(C)C[C@H](NC(=O)[C@H](Cc1ccccc1)NC(=O)c1cnccn1)B(O)O [Bortezomib] (partner 0.002 µM) here?
Answer: 1.1

Question: And the relative viability (NCI-H2228; first compound 0.6325 µM)?
Answer: 0.957

Question: What about the relative viability (NCI-H2228; first compound 2 µM) of the same compound?
Answer: 1.09

Question: What about the relative viability (NCI-H2228; first compound 6.325 µM) of the same compound?
Answer: 1.04

Question: And the relative viability (NCI-H2228; first compound 20 µM)?
Answer: 0.0398

Question: And the relative viability (ABC-1; first compound 0.2 µM)?
Answer: 0.297

Question: What about the relative viability (ABC-1; first compound 0.6325 µM) of the same compound?
Answer: 0.278

Question: What about the relative viability (ABC-1; first compound 2 µM) of the same compound?
Answer: 0.256

Question: What about the relative viability (ABC-1; first compound 6.325 µM) of the same compound?
Answer: 0.287

Question: What about the relative viability (ABC-1; first compound 20 µM) of the same compound?
Answer: 0.276

Question: And the relative viability (LOU-NH91; first compound 0.2 µM)?
Answer: 0.452

Question: And the relative viability (LOU-NH91; first compound 0.6325 µM)?
Answer: 0.403

Question: And the relative viability (LOU-NH91; first compound 2 µM)?
Answer: 0.541

Question: And the relative viability (LOU-NH91; first compound 6.325 µM)?
Answer: 0.423

Question: And the relative viability (LOU-NH91; first compound 20 µM)?
Answer: 0.485

Question: And the relative viability (NCI-H1650; first compound 0.2 µM)?
Answer: 0.207

Question: What about the relative viability (NCI-H1650; first compound 0.6325 µM) of the same compound?
Answer: 0.222

Question: What about the relative viability (NCI-H1650; first compound 2 µM) of the same compound?
Answer: 0.205

Question: What about the relative viability (NCI-H1650; first compound 6.325 µM) of the same compound?
Answer: 0.188

Question: What about the relative viability (NCI-H1650; first compound 20 µM) of the same compound?
Answer: 0.197

Question: What about the relative viability (NCI-H1755; first compound 0.2 µM) of the same compound?
Answer: 1.11

Question: What about the relative viability (NCI-H1755; first compound 0.6325 µM) of the same compound?
Answer: 0.892

Question: And the relative viability (NCI-H1755; first compound 2 µM)?
Answer: 0.877

Question: And the relative viability (NCI-H1755; first compound 6.325 µM)?
Answer: 0.974

Question: And the relative viability (NCI-H1755; first compound 20 µM)?
Answer: 0.975

Question: What about the relative viability (NCI-H1703; first compound 0.2 µM) of the same compound?
Answer: 0.568

Question: What about the relative viability (NCI-H1703; first compound 0.6325 µM) of the same compound?
Answer: 0.369

Question: And the relative viability (NCI-H1703; first compound 2 µM)?
Answer: 0.311

Question: What about the relative viability (NCI-H1703; first compound 6.325 µM) of the same compound?
Answer: 0.142

Question: And the relative viability (NCI-H1703; first compound 20 µM)?
Answer: 0.049

Question: And the relative viability (Calu-6; first compound 0.2 µM)?
Answer: 1.11

Question: And the relative viability (Calu-6; first compound 0.6325 µM)?
Answer: 0.95

Question: And the relative viability (Calu-6; first compound 2 µM)?
Answer: 1.07

Question: What about the relative viability (Calu-6; first compound 6.325 µM) of the same compound?
Answer: 1.02

Question: And the relative viability (Calu-6; first compound 20 µM)?
Answer: 0.463

Question: What about the relative viability (NCI-H1299; first compound 0.2 µM) of the same compound?
Answer: 1.06

Question: What about the relative viability (NCI-H1299; first compound 0.6325 µM) of the same compound?
Answer: 1.02

Question: What about the relative viability (NCI-H1299; first compound 2 µM) of the same compound?
Answer: 0.96

Question: What about the relative viability (NCI-H1299; first compound 6.325 µM) of the same compound?
Answer: 1.09

Question: And the relative viability (NCI-H1299; first compound 20 µM)?
Answer: 0.996

Question: And the relative viability (EBC-1; first compound 0.2 µM)?
Answer: 0.581

Question: And the relative viability (EBC-1; first compound 0.6325 µM)?
Answer: 0.549

Question: What about the relative viability (EBC-1; first compound 2 µM) of the same compound?
Answer: 0.572

Question: And the relative viability (EBC-1; first compound 6.325 µM)?
Answer: 0.544

Question: And the relative viability (EBC-1; first compound 20 µM)?
Answer: 0.136

Question: And the relative viability (NCI-H1666; first compound 0.2 µM)?
Answer: 0.836

Question: What about the relative viability (NCI-H1666; first compound 0.6325 µM) of the same compound?
Answer: 0.777

Question: What about the relative viability (NCI-H1666; first compound 2 µM) of the same compound?
Answer: 0.816

Question: What about the relative viability (NCI-H1666; first compound 6.325 µM) of the same compound?
Answer: 0.983

Question: What about the relative viability (NCI-H1666; first compound 20 µM) of the same compound?
Answer: 0.305

Question: What about the relative viability (IA-LM; first compound 0.2 µM) of the same compound?
Answer: 1.02

Question: And the relative viability (IA-LM; first compound 0.6325 µM)?
Answer: 0.648

Question: What about the relative viability (IA-LM; first compound 2 µM) of the same compound?
Answer: 0.831

Question: And the relative viability (IA-LM; first compound 6.325 µM)?
Answer: 0.989

Question: What about the relative viability (IA-LM; first compound 20 µM) of the same compound?
Answer: 0.903
